The source of these data is patent US5912352A, “Intermediates for the preparation of peptide analogues” (Novartis Finance Corporation, priority 1996, dated 1999).

SMILES strings stand for the structures. pIC50: −log10 of the molar value.

A short description of data set [1]: Plasma levels in mice after oral administration. The class given is in vivo, female BALB/c mice. The settings on record: 120 mg/kg. The procedure: In order to determine its pharmacokinetics, the title compound from Example 5 is dissolved in dimethyl sulfoxide (DMSO) in a concentration of 240 mg/ml. The resulting solution is diluted 1:20 (v/v) with 20% (w/v) aqueous hydroxypropyl-β-cyclodextrin solution in order to obtain a concentration of the test compound of 12 mg/ml. The resulting solution is treated briefly with ultrasound and administered orally to female BALB/c mice (Bomholtgarden, Copenhagen, Denmark) by artificial tube feeding at a dose of 120 mg/kg. At fixed times (for example 30, 60, 90, 120 min) after administration, mice are sacrificed and the […] stored in heparinised test tubes. The blood is centrifuged (12000×g, 5 min) and the plasma removed. […] The precipitate is pelleted by centrifugation (12000×g, 5 min), and the concentration of the test compound is determined by reversed phase high performance liquid chromatography (HPLC).
The HPLC analysis of the samples obtained in accordance with the method described above is carried out on a 125×4.6 mm Nucleosil® C18 column (reversed phase material supplied by Macherey & Nagel, Duren, Germany, based on silica gel derivatised with hydrocarbon radicals having 18 carbon atoms), using a 2 cm long preliminary column containing the same column material. […] The test compound is detected by UV absorption measurement at 255 nm. […]

Data set [2] has as its target T1, HIV-1-protease (Human immunodeficiency virus type 1 group M subtype B, UniProt P04585).
T1 construct: made in house
Briefly: Inhibition of the proteolytic activity of HIV-1-protease (icosapeptide substrate, HPLC). The class given is biochemical. The settings on record: icosapeptide RRSNQVSQNYPIVQNIQGRR 122 μM, 20 mM MES buffer pH 6.0, one hour at 37° C.; read-out: IC50 (concentration at which half the maximum inhibition of HIV-1-protease is found). How it is done: In that procedure the inhibition of the action of HIV-1- protease (preparation: see S. Billich et al., J. Biol. Chem. 263 (34), 17905-17908 (1990)) is measured in the presence of the icosapeptide […] (a synthetic substrate of HIV-1-protease, prepared by peptide synthesis in accordance with known procedures (see J. Schneider et al., Cell 54, 363-368 (1988)), which contains as substrate analogue one of the cleavage sites of the gag-precursor protein (natural substrate of HIV-1-protease). That substrate and its cleavage products are analysed by high performance liquid chromatography (HPLC).
The test compound is dissolved in dimethyl sulfoxide. The enzymatic test is carried out by adding suitable dilutions of the inhibitor in 20 mM β-morpholinoethanesulfonic acid (MES) buffer pH 6.0 to the test mixture. That mixture consists of the above-mentioned icosapeptide (122 μM) in 20 mM MES buffer pH 6.0. 100 μl are used per test batch. The reaction is started by the addition of […] of HIV-1-protease solution and is stopped after one hour's incubation at 37° C. by the addition of 10 μl of 0.3M HClO4. After centrifugation of the sample at 10000×g for 5 minutes, 20 μl of the resulting supernatant are applied to a 125×4.6 mm Nucleosil® Cl8-5 μ HPLC column (reversed phase material supplied by Macherey & Nagel, Duren, FRG, based on silica gel that has been charged with C18 alkyl chains). The uncleaved icosapeptide and its cleavage products are eluted from the column by means of the following gradient: 100% eluant 1→50% eluant 1+50% eluant 2 (eluant 1:10% acetonitrile, 90% H2 O, 0.1% trifluoroacetic acid (TFA); eluant 2:75% acetonitrile, 25% H2 O, 0.08% TFA) over 15 minutes, throughflow rate 1 ml/min. The quantification of the eluted peptide fragments is carried out by measuring the peak height of the cleavage product at 215 nm.

The subject of data set [3] is HIV-1/MN. Briefly: Inhibition of virus replication in MT-2 cells infected with HIV-1/MN (reverse transcriptase activity in supernatant). The class given is cell-based. Conditions: 4 days' incubation. An excerpt: In a further test it can be shown that the title compound from Example 5 protects cells normally infected by HIV from such an infection or at least slows down such an infection. For this test, MT-2 cells infected with HIV-1/MN are used. MT-2 cells have been transformed with HTLV-1 (a virus causing leukaemia) and are a continuous producer thereof; they are therefore especially sensitive to the cytopathogenic effect of HIV. MT-2 cells can be obtained via the AIDS Research and Reference Reagent Program, Division of AIDS, NIAID, NIH from Dr. Douglas Richman (see J. Biol. Chem. 263, 5870-5875 (1988) and also Science 229, 563-566 (1985)). The MT-2 cells are cultured in RPMI 1640 medium (Gibco, Scotland; RPMI comprises an amino acid mixture without glutamine) supplemented with 10% heat-inactivated foetal calf serum, glutamine and standard antibiotics. […] The titre of the HIV-1/MN virus stock solution (determined by titration onto MT-2 cells) is 4.2×10^5 TClD50/ml (TClD50=Tissue Culture Infective Dose=dose that infects 50% of the MT-2 cells). […] Prior to the test, 0.1% (v/v) [alpha-^32 P]dTTP is added to aliquots of the solution in order to establish a radioactivity of 10 μCl/ml.
After mixing, the plate is incubated for 2 h at 37° C. […] The radioactivity on the filters is measured in a Matrix Packard 96-well counter (Packard, Zurich, Switzerland). […]

Turning to `COC(=O)N[C@H](C(=O)N[C@@H](Cc1ccccc1)[C@@H](O)CN(Cc1ccc(-c2ccccn2)cc1)NC(=O)[C@@H](NC(=O)OC)C(C)(C)C)C(C)(C)C` [Example 5, 1-[4-(Pyridin-2-yl)-phenyl]-4(S)-hydroxy-5(S)-2,5-bis[N-(N-methoxycarbonyl-(L)-tert-leucyl)-amino]-6-phenyl-2-azahexane], the plasma level in data set [1] (30 min after administration) was 21.83 µM; in data set [1] (90 min after administration), 31.76 µM. Also, the pIC50 in data set [2] was 7.59. In addition, in data set [3], the “ED90 (concentration that reduces the RT activity by 90%; 90% inhibition of virus replication)” value was determined as 3 nM.
For `COC(=O)N[C@H](C(=O)N[C@@H](Cc1ccccc1)[C@@H](O)CN(Cc1ccc(-c2nnn(C)n2)cc1)NC(=O)[C@@H](NC(=O)OC)C(C)(C)C)C(C)(C)C` [1-[4-(2-methyl-2H-tetrazol-5-yl)-phenyl]-4(S)-hydroxy-5(S)-2,5-bis[N-(N-methoxycarbonyl-(L)-tert-leucyl)amino]-6-phenyl-2-axahexane], the pIC50 in data set [2] was 7.29.
For the compound `COC(=O)N[C@H](C(=O)N[C@@H](Cc1ccccc1)[C@@H](O)CN(Cc1ccc(-c2nccs2)cc1)NC(=O)[C@@H](NC(=O)OC)C(C)(C)C)C(C)(C)C` [1-[4-(thiazol-2-yl)-phenyl]-4(S)-hydroxy-5(S)-2,5-bis[N-(N-methoxycarbonyl-(L)-tert-leucyl)amino]-6-phenyl-2-azahexane], in data set [2], the pIC50 was 7.48.
